In patent US4276289A, “Antitumor glycosides, their preparation and use” (Farmitalia Carlo Erba, S.p.A., priority 1979, dated 1981):
≈ marks a conversion by molar mass, not a printed value. Read-outs that look alike come from different tables or passages of the source. Each block holds one compound with its values, some of them ahead of it.

What was measured:
[1] = system: P 388 leukemia; test: in vivo activity against P 388 leukemia (treatment i.p. on day 1 after tumor implantation)
[2] = system: HeLa cells; test: in vitro test against HeLa cells; format: cell-based; details: Homo sapiens, read-out: ID50 on HeLa Cells
Method: The biological activity of the compounds according to the invention was tested in vitro against HeLa cells in comparison with daunorubicin and doxorubicin.
Compound ID50 on HeLa Cells (ng/ml)

IC50 ([2]; in vitro, HeLa cells): 0.0059 µg/mL (≈ 0.0106 µM)
Compound: COc1cccc2c1C(=O)c1c(O)c3c(c(O)c1C2=O)C[C@@](O)(C(=O)CO)C[C@@H]3O[C@H]1C[C@@H](N)[C@@H](OC)[C@H](C)O1 [3',4'-diepi-4'-O-methyl doxorubicin, 3',4'-diepi-4'-O-methyl-doxorubicin]
LTS (long term survivors) ([1]; 1.9 mg/kg): 0/10 | T/C % ([1]; 1.9 mg/kg): 180% | Toxicity ([1]; 1.9 mg/kg): 0/10 | LTS (long term survivors) ([1]; 2.9 mg/kg): 0/10 | T/C % ([1]; 2.9 mg/kg): 200% | Toxicity ([1]; 2.9 mg/kg): 2/10 | LTS (long term survivors) ([1]; 4.4 mg/kg): 0/10 | T/C % ([1]; 4.4 mg/kg): 109% | Toxicity ([1]; 4.4 mg/kg): 10/10 | LTS (long term survivors) ([1]; 6.6 mg/kg): 0/10 | T/C % ([1]; 6.6 mg/kg): 76% | Toxicity ([1]; 6.6 mg/kg): 10/10

Compound: COc1cccc2c1C(=O)c1c(O)c3c(c(O)c1C2=O)C[C@@](O)(C(C)=O)C[C@@H]3O[C@H]1C[C@H](N)[C@H](O)[C@H](C)O1 [Daunorubicin, reference compound]
LTS (long term survivors) ([1]; 2.9 mg/kg): 0/18 | Toxicity ([1]; 2.9 mg/kg): 0/18 | LTS (long term survivors) ([1]; 4.4 mg/kg): 0/18 | Toxicity ([1]; 4.4 mg/kg): 0/18 | LTS (long term survivors) ([1]; 6.6 mg/kg): 0/8 | T/C % ([1]; 6.6 mg/kg): 163% | Toxicity ([1]; 6.6 mg/kg): 3/8 | IC50 ([2]; HeLa): 0.014 µg/mL (≈ 0.0265 µM)

IC50 ([2]; in vitro, HeLa cells): 0.036 µg/mL (≈ 0.0665 µM)
Compound: COc1cccc2c1C(=O)c1c(O)c3c(c(O)c1C2=O)C[C@@](O)(C(C)=O)C[C@@H]3O[C@H]1C[C@@H](N)[C@@H](OC)[C@H](C)O1 [3',4'-diepi-4'-O-methyl daunorubicin, 3',4'-diepi-4'-O-methyl-daunorubicin]
LTS (long term survivors) ([1]; 6.6 mg/kg): 0/8 | T/C % ([1]; 6.6 mg/kg): 145% | Toxicity ([1]; 6.6 mg/kg): 0/8 | LTS (long term survivors) ([1]; 10 mg/kg): 0/8 | T/C % ([1]; 10 mg/kg): 154% | Toxicity ([1]; 10 mg/kg): 0/8 | LTS (long term survivors) ([1]; 15 mg/kg): 0/18 | Toxicity ([1]; 15 mg/kg): 0/18 | LTS (long term survivors) ([1]; 22 mg/kg): 0/10 | T/C % ([1]; 22 mg/kg): 222% | Toxicity ([1]; 22 mg/kg): 0/10 | LTS (long term survivors) ([1]; 33 mg/kg): 1/10 | T/C % ([1]; 33 mg/kg): 231% | Toxicity ([1]; 33 mg/kg): 2/10

Compound: COc1cccc2c1C(=O)c1c(O)c3c(c(O)c1C2=O)C[C@@](O)(C(=O)CO)C[C@@H]3O[C@H]1C[C@H](N)[C@H](O)[C@H](C)O1 [Doxorubicin, reference compound]
LTS (long term survivors) ([1]; 4.4 mg/kg): 2/10 | T/C % ([1]; 4.4 mg/kg): 209% | Toxicity ([1]; 4.4 mg/kg): 0/8 | LTS (long term survivors) ([1]; 6.6 mg/kg): 0/10 | T/C % ([1]; 6.6 mg/kg): 233% | Toxicity ([1]; 6.6 mg/kg): 0/8 | IC50 ([2]; HeLa): 0.0095 µg/mL (≈ 0.0175 µM)
